# Laboratory results reported in ChEMBL document CHEMBL4507262, “Data for DCP probe A-1596586” (2021).
# Columns and labels:
# [1] = biological target: Activin receptor type-1B (Homo sapiens) (UniProt P36896); details: Compound concentration 1000.0 nM
# [2] = biological target: Ribosomal protein S6 kinase alpha-5 (Homo sapiens) (UniProt O75582); details: Compound concentration 1000.0 nM
# [3] = biological target: cAMP-dependent protein kinase catalytic subunit beta (Homo sapiens) (UniProt P22694); details: Compound concentration 1000.0 nM
# [4] = biological target: Serine/threonine-protein kinase PAK 2 (Homo sapiens) (UniProt Q13177); details: Compound concentration 1000.0 nM
# [5] = biological target: Leukocyte tyrosine kinase receptor (Homo sapiens) (UniProt P29376); details: Compound concentration 1000.0 nM
# [6] = biological target: Tyrosine-protein kinase Fyn (Homo sapiens) (UniProt P06241); details: Compound concentration 1000.0 nM
# [7] = biological target: Eukaryotic translation initiation factor 2-alpha kinase 1 (Homo sapiens) (UniProt Q9BQI3); details: Compound concentration 1000.0 nM
# [8] = biological target: Serine/threonine-protein kinase NIM1 (Homo sapiens) (UniProt Q8IY84); details: Compound concentration 1000.0 nM
# Serine/threonine-protein kinase NIM1 (Homo sapiens), sequence (Q8IY84 whole entry): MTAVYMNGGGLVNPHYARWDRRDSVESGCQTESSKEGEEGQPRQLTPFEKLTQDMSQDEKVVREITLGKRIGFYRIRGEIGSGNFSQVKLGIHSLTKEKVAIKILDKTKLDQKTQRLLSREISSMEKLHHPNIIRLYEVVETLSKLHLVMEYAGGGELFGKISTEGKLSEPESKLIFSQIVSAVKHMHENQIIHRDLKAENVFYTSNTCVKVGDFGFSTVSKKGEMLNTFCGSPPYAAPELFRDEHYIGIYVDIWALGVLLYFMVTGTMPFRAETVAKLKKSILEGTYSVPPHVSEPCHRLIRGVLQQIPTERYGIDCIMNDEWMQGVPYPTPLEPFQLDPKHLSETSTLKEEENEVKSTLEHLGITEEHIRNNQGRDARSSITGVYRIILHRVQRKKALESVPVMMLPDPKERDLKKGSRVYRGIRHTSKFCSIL
# [9] = biological target: Sigma non-opioid intracellular receptor 1 (Homo sapiens, UniProt Q99720); experiment: sigma (non-selective) (h) Eurofins-Cerep binding assay; parameters: ligand concentration 10 nM; details: filed as agonist, Compound concentration 10.0 uM
# [10] = test system: Hepatocyte growth factor receptor (Homo sapiens), P08581 [M1250T]; details: Compound concentration 1000.0 nM
# [11] = test system: ALK tyrosine kinase receptor (Homo sapiens), Q9UM73 [L1196M]; details: Compound concentration 1000.0 nM
# [12] = biological target: Myosin light chain kinase 2, skeletal/cardiac muscle (Homo sapiens) (UniProt Q9H1R3); details: Compound concentration 1000.0 nM
# [13] = biological target: Tyrosine-protein kinase ITK/TSK (Homo sapiens) (UniProt Q08881); details: Compound concentration 1000.0 nM
# [14] = biological target: Non-receptor tyrosine-protein kinase TNK1 (Homo sapiens) (UniProt Q13470); details: Compound concentration 1000.0 nM
# [15] = biological target: Glucocorticoid receptor (Homo sapiens) (UniProt P04150); experiment: GR (h) Eurofins-Cerep binding assay; parameters: ligand concentration 1.5 nM; details: filed as agonist, Compound concentration 10.0 uM
# [16] = biological target: Sodium-dependent serotonin transporter (Homo sapiens) (UniProt P31645); experiment: 5-HT transporter (h) Eurofins-Cerep binding assay; parameters: ligand concentration 2 nM; details: filed as antagonist, Compound concentration 10.0 uM
# [17] = test system: Tyrosine-protein kinase ABL1 (Homo sapiens), P00519 [T315I]; details: Compound concentration 1000.0 nM
# [18] = biological target: Dual specificity protein kinase CLK1 (Homo sapiens) (UniProt P49759); details: Compound concentration 1000.0 nM
# [19] = biological target: 5-hydroxytryptamine receptor 1D (Homo sapiens) (UniProt P28221); details: Compound concentration 10.0 uM
# [20] = biological target: Homeodomain-interacting protein kinase 1 (Homo sapiens) (UniProt Q86Z02); details: Compound concentration 1000.0 nM
# [21] = biological target: Mitogen-activated protein kinase kinase kinase 9 (Homo sapiens) (UniProt P80192); details: Compound concentration 1000.0 nM
# [22] = biological target: Phosphatidylinositol 4-phosphate 3-kinase C2 domain-containing subunit beta (Homo sapiens) (UniProt O00750); details: Compound concentration 1000.0 nM
# [23] = biological target: RAC-alpha serine/threonine-protein kinase (Homo sapiens) (UniProt P31749); details: Compound concentration 1000.0 nM
# RAC-alpha serine/threonine-protein kinase (Homo sapiens), sequence (P31749 whole entry): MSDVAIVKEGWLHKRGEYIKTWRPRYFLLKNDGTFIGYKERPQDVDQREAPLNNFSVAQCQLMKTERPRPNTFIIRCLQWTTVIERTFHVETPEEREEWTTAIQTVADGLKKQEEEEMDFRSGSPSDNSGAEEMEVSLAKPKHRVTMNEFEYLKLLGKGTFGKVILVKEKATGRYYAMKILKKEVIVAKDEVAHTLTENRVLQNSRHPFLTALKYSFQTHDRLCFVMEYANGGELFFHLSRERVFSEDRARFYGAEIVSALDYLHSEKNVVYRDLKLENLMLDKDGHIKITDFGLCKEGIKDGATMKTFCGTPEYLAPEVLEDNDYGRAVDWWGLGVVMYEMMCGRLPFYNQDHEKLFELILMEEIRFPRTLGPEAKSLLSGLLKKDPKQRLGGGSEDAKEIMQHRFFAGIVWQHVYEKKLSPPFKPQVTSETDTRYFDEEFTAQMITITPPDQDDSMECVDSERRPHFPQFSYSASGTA
# [24] = biological target: ALK tyrosine kinase receptor (Homo sapiens) (UniProt Q9UM73); details: Compound concentration 1000.0 nM
# [25] = test system: Receptor-type tyrosine-protein kinase FLT3 (Homo sapiens), P36888 [D835H]; details: Compound concentration 1000.0 nM
# [26] = biological target: Ribosomal protein S6 kinase alpha-1 (Homo sapiens) (UniProt Q15418); details: Compound concentration 1000.0 nM
# Ribosomal protein S6 kinase alpha-1 (Homo sapiens), sequence (Q15418 whole entry): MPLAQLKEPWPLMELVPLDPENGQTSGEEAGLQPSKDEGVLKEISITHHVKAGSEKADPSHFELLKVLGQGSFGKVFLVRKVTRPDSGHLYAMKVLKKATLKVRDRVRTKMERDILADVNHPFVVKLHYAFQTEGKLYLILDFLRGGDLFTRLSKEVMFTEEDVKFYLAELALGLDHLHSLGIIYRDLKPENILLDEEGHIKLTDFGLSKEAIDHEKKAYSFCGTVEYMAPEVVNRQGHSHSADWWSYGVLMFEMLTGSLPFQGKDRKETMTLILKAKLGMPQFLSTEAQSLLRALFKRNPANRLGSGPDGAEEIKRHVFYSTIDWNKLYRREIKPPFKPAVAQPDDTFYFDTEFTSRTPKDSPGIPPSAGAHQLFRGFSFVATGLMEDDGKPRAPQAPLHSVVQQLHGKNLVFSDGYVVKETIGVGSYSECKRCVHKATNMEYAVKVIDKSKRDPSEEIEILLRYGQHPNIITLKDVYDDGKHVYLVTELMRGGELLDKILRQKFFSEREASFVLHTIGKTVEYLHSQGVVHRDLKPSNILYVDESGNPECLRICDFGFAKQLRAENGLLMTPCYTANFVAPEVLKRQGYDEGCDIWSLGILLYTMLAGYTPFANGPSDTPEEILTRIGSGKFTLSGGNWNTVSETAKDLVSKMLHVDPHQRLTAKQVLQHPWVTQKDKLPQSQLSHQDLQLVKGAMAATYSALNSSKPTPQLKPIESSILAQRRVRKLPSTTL
# [27] = test system: Tyrosine-protein kinase ABL1 (Homo sapiens), P00519 [F317L]; details: Compound concentration 1000.0 nM
# [28] = biological target: Dual specificity protein kinase CLK2 (Homo sapiens) (UniProt P49760); details: Compound concentration 1000.0 nM
# [29] = biological target: Beta-1 adrenergic receptor (Homo sapiens) (UniProt P08588); experiment: Beta1 (h) Eurofins-Cerep binding assay; parameters: ligand concentration 0.3 nM; details: filed as agonist, Compound concentration 10.0 uM
# Beta-1 adrenergic receptor (Homo sapiens), sequence (P08588 whole entry, looked up): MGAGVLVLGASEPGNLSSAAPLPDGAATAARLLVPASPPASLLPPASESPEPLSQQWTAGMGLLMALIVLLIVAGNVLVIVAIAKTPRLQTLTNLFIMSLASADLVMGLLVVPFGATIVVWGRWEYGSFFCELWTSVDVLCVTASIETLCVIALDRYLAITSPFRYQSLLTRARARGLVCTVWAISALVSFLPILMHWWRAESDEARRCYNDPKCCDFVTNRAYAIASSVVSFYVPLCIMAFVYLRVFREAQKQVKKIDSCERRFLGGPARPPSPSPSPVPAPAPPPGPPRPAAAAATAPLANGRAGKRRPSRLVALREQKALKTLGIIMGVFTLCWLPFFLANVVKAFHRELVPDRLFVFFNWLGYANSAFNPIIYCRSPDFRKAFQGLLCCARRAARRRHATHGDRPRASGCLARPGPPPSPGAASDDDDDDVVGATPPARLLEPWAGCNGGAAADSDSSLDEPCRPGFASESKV
# [30] = biological target: Phosphatidylinositol 4-phosphate 5-kinase type-1 alpha (Homo sapiens) (UniProt Q99755); details: Compound concentration 1000.0 nM
# [31] = biological target: Mitogen-activated protein kinase kinase kinase 7 (Homo sapiens) (UniProt O43318); details: Compound concentration 1000.0 nM
# [32] = biological target: Ephrin type-A receptor 5 (Homo sapiens) (UniProt P54756); details: Compound concentration 1000.0 nM
# Ephrin type-A receptor 5 (Homo sapiens), sequence (P54756 whole entry): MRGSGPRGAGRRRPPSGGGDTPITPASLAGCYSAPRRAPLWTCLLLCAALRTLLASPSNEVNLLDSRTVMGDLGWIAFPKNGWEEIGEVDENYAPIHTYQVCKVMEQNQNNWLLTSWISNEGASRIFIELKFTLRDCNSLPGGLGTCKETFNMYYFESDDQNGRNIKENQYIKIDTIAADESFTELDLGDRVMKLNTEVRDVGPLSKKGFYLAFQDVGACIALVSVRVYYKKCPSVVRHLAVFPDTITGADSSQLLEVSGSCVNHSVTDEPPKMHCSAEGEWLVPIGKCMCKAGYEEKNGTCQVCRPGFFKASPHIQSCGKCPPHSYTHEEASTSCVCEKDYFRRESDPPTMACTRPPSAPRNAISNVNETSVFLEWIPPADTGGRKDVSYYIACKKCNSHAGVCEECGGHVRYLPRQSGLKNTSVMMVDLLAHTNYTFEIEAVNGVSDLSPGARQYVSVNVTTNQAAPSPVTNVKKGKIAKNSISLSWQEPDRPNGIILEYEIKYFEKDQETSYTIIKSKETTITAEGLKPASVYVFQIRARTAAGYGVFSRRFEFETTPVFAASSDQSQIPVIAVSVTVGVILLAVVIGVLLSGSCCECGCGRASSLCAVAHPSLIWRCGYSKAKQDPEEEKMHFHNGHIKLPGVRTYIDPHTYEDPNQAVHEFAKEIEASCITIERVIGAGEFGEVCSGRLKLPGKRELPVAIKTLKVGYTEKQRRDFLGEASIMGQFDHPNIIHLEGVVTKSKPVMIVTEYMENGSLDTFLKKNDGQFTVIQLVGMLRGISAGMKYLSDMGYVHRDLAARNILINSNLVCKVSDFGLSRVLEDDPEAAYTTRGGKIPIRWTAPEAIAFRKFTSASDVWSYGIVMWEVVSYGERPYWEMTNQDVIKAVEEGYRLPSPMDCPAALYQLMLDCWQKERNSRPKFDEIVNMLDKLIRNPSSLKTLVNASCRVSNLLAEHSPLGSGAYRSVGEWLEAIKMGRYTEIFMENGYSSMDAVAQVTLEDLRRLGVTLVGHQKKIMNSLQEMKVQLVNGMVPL
# [33] = biological target: Aurora kinase C (Homo sapiens) (UniProt Q9UQB9); details: Compound concentration 1000.0 nM
# [34] = biological target: Fibroblast growth factor receptor 3 (Homo sapiens) (UniProt P22607); details: Compound concentration 1000.0 nM
# [35] = biological target: Phosphatidylinositol 5-phosphate 4-kinase type-2 beta (Homo sapiens) (UniProt P78356); details: Compound concentration 1000.0 nM
# Phosphatidylinositol 5-phosphate 4-kinase type-2 beta (Homo sapiens), sequence (P78356 whole entry): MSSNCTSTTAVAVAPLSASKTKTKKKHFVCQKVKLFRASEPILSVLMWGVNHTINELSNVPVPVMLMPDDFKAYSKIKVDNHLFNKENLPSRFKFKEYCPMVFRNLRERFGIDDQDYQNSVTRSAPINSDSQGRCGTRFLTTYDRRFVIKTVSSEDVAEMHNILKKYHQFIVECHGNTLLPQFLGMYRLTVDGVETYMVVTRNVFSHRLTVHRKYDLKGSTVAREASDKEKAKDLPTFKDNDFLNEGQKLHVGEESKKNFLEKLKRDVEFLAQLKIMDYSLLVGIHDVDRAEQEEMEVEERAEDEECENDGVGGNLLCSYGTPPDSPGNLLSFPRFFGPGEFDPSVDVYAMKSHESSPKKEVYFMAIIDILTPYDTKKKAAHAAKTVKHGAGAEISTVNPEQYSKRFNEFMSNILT
# [36] = biological target: Dual specificity testis-specific protein kinase 1 (Homo sapiens) (UniProt Q15569); details: Compound concentration 1000.0 nM
# Dual specificity testis-specific protein kinase 1 (Homo sapiens), sequence (Q15569 whole entry, looked up): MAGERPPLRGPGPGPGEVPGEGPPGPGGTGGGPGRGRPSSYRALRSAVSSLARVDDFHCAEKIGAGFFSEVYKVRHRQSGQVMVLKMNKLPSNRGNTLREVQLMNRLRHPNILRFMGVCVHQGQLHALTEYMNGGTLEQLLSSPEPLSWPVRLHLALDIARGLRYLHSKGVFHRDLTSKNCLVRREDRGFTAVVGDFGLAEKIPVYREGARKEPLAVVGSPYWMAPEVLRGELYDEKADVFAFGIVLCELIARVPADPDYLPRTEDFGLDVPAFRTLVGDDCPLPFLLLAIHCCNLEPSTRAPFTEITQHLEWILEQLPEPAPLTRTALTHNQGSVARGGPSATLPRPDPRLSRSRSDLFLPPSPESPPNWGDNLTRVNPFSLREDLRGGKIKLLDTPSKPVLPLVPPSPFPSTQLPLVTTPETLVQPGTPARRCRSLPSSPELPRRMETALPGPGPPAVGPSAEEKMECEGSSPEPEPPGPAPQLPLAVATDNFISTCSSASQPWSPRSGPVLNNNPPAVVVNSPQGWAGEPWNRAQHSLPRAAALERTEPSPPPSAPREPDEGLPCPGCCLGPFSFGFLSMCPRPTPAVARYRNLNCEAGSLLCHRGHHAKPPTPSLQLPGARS
# [37] = biological target: Microtubule-associated serine/threonine-protein kinase 1 (Homo sapiens) (UniProt Q9Y2H9); details: Compound concentration 1000.0 nM
# [38] = biological target: Serine/threonine-protein kinase BRSK1 (Homo sapiens) (UniProt Q8TDC3); details: Compound concentration 1000.0 nM
# [39] = GPCRScan assay: inhibition of GABA/PBR; parameters: species or system Rattus norvegicus; radioligand conc. used [nm] 0.3 – 2.0, parental cells brain tissue
# [40] = biological target: Mitogen-activated protein kinase 15 (Homo sapiens) (UniProt Q8TD08); details: Compound concentration 1000.0 nM
# [41] = biological target: Mitogen-activated protein kinase kinase kinase kinase 2 (Homo sapiens) (UniProt Q12851); details: Compound concentration 1000.0 nM
# [42] = biological target: Testis-specific serine/threonine-protein kinase 1 (Homo sapiens) (UniProt Q9BXA7); details: Compound concentration 1000.0 nM
# [43] = biological target: Cystic fibrosis transmembrane conductance regulator (Homo sapiens, UniProt P13569); experiment: CSE-HRP cell viability (Cell surface expression-horseradish peroxidase) assay
# [44] = biological target: Serine/threonine-protein kinase Nek3 (Homo sapiens) (UniProt P51956); details: Compound concentration 1000.0 nM
# Serine/threonine-protein kinase Nek3 (Homo sapiens), sequence (P51956 whole entry): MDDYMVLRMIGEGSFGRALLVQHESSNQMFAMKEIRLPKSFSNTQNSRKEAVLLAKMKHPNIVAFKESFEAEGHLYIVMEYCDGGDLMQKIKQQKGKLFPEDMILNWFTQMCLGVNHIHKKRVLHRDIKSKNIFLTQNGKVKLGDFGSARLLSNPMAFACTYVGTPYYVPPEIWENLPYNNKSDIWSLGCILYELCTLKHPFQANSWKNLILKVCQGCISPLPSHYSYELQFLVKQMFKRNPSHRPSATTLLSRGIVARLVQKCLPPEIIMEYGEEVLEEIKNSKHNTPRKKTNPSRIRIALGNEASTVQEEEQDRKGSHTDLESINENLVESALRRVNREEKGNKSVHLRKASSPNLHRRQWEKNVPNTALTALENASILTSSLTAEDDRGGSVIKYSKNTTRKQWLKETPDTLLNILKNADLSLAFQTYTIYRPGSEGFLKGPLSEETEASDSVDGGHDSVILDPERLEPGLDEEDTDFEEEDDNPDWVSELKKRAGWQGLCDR
# [45] = biological target: Cyclin-dependent kinase 4 (Homo sapiens) (UniProt P11802); details: Compound concentration 1000.0 nM
# Cyclin-dependent kinase 4 (Homo sapiens), sequence (P11802 whole entry): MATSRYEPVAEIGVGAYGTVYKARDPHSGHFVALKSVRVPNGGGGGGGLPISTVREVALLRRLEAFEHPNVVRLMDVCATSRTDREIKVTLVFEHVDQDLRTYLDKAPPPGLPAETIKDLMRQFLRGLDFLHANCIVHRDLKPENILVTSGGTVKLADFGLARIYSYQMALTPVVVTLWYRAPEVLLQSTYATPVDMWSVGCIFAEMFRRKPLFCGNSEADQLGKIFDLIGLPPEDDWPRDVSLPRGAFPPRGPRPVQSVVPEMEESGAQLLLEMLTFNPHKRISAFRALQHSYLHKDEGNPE
compound,measurement,setting,value
COc1ccc2c(c1)O[C@@H](c1ccc(OC)c(OC)c1)C[C@H]2NC(=O)C1(c2ccc3c(c2)OC(F)(F)O3)CC1 [A-1596586],residual activity,[1],67%
same,residual activity,[2],100%
same,residual activity,[3],95%
same,residual activity,[4],100%
same,residual activity,[5],100%
same,residual activity,[6],96%
same,residual activity,[7],98%
same,residual activity,[8],94%
same,% Inhibition of Control Specific Binding (Mean n=2),[9],35.1%
same,residual activity,[10],95%
same,residual activity,[11],90%
same,residual activity,[12],90%
same,residual activity,[13],86%
same,residual activity,[14],100%
same,% Inhibition of Control Specific Binding (Mean n=2),[15],22.1%
same,% Inhibition of Control Specific Binding (Mean n=2),[16],11.7%
same,residual activity,[17],82%
same,residual activity,[18],100%
same,inhibition,[19],4.36%
same,residual activity,[20],86%
same,residual activity,[21],100%
same,residual activity,[22],96%
same,residual activity,[23],100%
same,residual activity,[24],100%
same,residual activity,[25],100%
same,residual activity,[26],85%
same,residual activity,[27],94%
same,residual activity,[28],96%
same,% Inhibition of Control Specific Binding (Mean n=2),[29],3.1%
same,residual activity,[30],72%
same,residual activity,[31],100%
same,residual activity,[32],100%
same,residual activity,[33],100%
same,residual activity,[34],89%
same,residual activity,[35],100%
same,residual activity,[36],96%
same,residual activity,[37],100%
same,residual activity,[38],99%
same,Ki,[39],19.6 nM
same,pKi,[39],7.71
same,residual activity,[40],100%
same,residual activity,[41],87%
same,residual activity,[42],100%
same,EC50,[43],> 20000 nM (not active)
same,residual activity,[44],76%
same,residual activity,[45],100%
COc1ccc2c(c1)O[C@H](c1ccc(OC)c(OC)c1)C[C@@H]2NC(=O)C1(c2ccc3c(c2)OC(F)(F)O3)CC1 [A-1596584],residual activity,[1],82%
same,residual activity,[2],100%
same,residual activity,[3],99%
same,residual activity,[4],100%
same,residual activity,[5],100%
same,residual activity,[6],100%
same,residual activity,[7],100%
same,residual activity,[8],84%
same,% Inhibition of Control Specific Binding (Mean n=2),[9],33.1%
same,residual activity,[10],89%
same,residual activity,[11],100%
same,residual activity,[12],95%
same,residual activity,[13],100%
same,residual activity,[14],97%
same,% Inhibition of Control Specific Binding (Mean n=2),[15],13.7%
same,% Inhibition of Control Specific Binding (Mean n=2),[16],7%
same,residual activity,[17],100%
same,residual activity,[18],100%
same,inhibition,[19],6.1%
same,residual activity,[20],87%
same,residual activity,[21],93%
same,residual activity,[22],96%
same,residual activity,[23],63%
same,residual activity,[24],100%
same,residual activity,[25],100%
same,residual activity,[26],100%
same,residual activity,[27],97%
same,residual activity,[28],95%
same,% Inhibition of Control Specific Binding (Mean n=2),[29],-2.1%
same,residual activity,[30],84%
same,residual activity,[31],100%
same,residual activity,[32],100%
same,residual activity,[33],100%
same,residual activity,[34],100%
same,residual activity,[35],80%
same,residual activity,[36],98%
same,residual activity,[37],100%
same,residual activity,[38],100%
same,Ki,[39],218 nM
same,pKi,[39],6.66
same,residual activity,[40],100%
same,residual activity,[41],99%
same,residual activity,[42],100%
same,EC50,[43],> 20000 nM (not active)
same,residual activity,[44],90%
same,residual activity,[45],100%
